Test results taken from DBAASP.
≈ marks a conversion by molar mass, not a printed value.

Experiments:
Experiment in all cases: ≥ marks a high value that may be exact or a test limit, other limits are often not marked, values filed in µg/mL are converted to µM
[1] = system: Escherichia coli ATCC 25726
[2] = system: Staphylococcus aureus ATCC 25923
Acinetobacter baumannii = system: Acinetobacter baumannii
[3] = system: Candida albicans ATCC 90028
[4] = system: Candida albicans ATCC 2002
[5] = system: Escherichia coli ATCC 25922
[6] = system: Pseudomonas aeruginosa CMCCB 10104
[7] = system: Staphylococcus aureus ATCC 2592
Escherichia coli BW25113 = system: Escherichia coli BW25113

CC[C@H](C)[C@H](NC(=O)[C@H](CCSC)NC(=O)[C@H](C)NC(=O)[C@H](CC(N)=O)NC(=O)[C@H](CCCCN)NC(=O)[C@H](Cc1ccccc1)NC(=O)[C@H](CO)NC(=O)[C@H](CC(=O)O)NC(=O)[C@H](CC(C)C)NC(=O)[C@H](Cc1ccccc1)NC(=O)CN)C(=O)NCC(=O)N[C@H](C(=O)N[C@@H](C)C(=O)N[C@@H](CCCCN)C(=O)N[C@@H](CO)C(=O)N[C@H](C(=O)NCC(=O)N[C@@H](CCCCN)C(=O)N[C@H](C(=O)N[C@@H](C)C(=O)N[C@@H](CC(C)C)C(=O)N[C@@H](CO)C(=O)N[C@H](C(=O)N[C@@H](CC(C)C)C(=O)N[C@@H](C)C(=O)N[C@H]1CSSC[C@@H](C(=O)O)NC(=O)[C@H](CO)NC(=O)[C@H](CCCCN)NC(=O)[C@H](CC(=O)O)NC(=O)[C@H]([C@@H](C)CC)NC(=O)[C@H](CCCCN)NC1=O)[C@@H](C)O)[C@@H](C)O)C(C)C)C(C)C [GFLDSFKNAMIGVAKSVGKTALSTLACKIDKSC]
MIC [1]: 18.4 µM (≈ 62.5 µg/mL)
MIC [2]: 36.7 µM (≈ 125 µg/mL)

CC[C@H](C)[C@H](NC(=O)CN)C(=O)N[C@@H](Cc1c[nH]c2ccccc12)C(=O)N[C@@H](CC(=O)O)C(=O)N[C@H](C(=O)N[C@H](C(=O)N[C@@H](CCCCN)C(=O)N[C@@H](CO)C(=O)N[C@@H](CCSC)C(=O)NCC(=O)N[C@@H](CCCCN)C(=O)N[C@H](C(=O)N[C@@H](Cc1ccccc1)C(=O)N[C@@H](C)C(=O)NCC(=O)N[C@@H](CC(C)C)C(=O)N[C@H](C(=O)N[C@@H](CC(C)C)C(=O)N[C@@H](CCC(N)=O)C(=O)N[C@@H](CC(N)=O)C(=O)N[C@@H](CC(C)C)C(N)=O)[C@@H](C)CC)C(C)C)[C@@H](C)CC)[C@@H](C)O [GIWDTIKSMGKVFAGLILQNL]
MIC (Acinetobacter baumannii): 25 µM (≈ 57.6 µg/mL)
MIC [3]: 12.5 µM (≈ 28.8 µg/mL)
MIC [1]: ≥ 100 µM
MIC [2]: 25 µM (≈ 57.6 µg/mL)

CC[C@H](C)[C@H](NC(=O)CNC(=O)[C@H](CCCCN)NC(=O)CNC(=O)[C@H](C)NC(=O)[C@H](Cc1ccccc1)NC(=O)[C@H](CCCCN)NC(=O)[C@H](CO)NC(=O)[C@H](Cc1ccccc1)NC(=O)[C@H](CC(C)C)NC(=O)CN)C(=O)N[C@@H](CCCCN)C(=O)N[C@@H](CC(N)=O)C(=O)N[C@@H](Cc1ccccc1)C(=O)N[C@@H](CC(C)C)C(=O)N[C@@H](CC(N)=O)C(=O)N[C@@H](CCCCN)C(=O)NCC(=O)N[C@H](C(=O)N[C@@H](CCCCN)C(=O)N[C@@H](Cc1cnc[nH]1)C(=O)N[C@H](C(=O)NCC(=O)N[C@@H](CCCCN)C(=O)N[C@@H](CCC(=O)O)C(=O)O)[C@@H](C)CC)C(C)C [GLFSKFAGKGIKNFLNKGVKHIGKE]
MIC [4]: 0.773 µM (≈ 2.1 µg/mL)
MIC [5]: 1.55 µM (≈ 4.2 µg/mL)
MIC [6]: 0.773 µM (≈ 2.1 µg/mL)
MIC [2]: 1.55 µM (≈ 4.2 µg/mL)

CC[C@H](C)[C@H](NC(=O)[C@H](CCCCN)NC(=O)[C@H](CO)NC(=O)[C@H](C)NC(=O)[C@H](Cc1c[nH]c2ccccc12)NC(=O)CN)C(=O)NCC(=O)N[C@@H](CCC(N)=O)C(=O)N[C@H](C(=O)N[C@@H](CC(C)C)C(=O)NCC(=O)N[C@@H](CCCCN)C(=O)N[C@@H](CCSC)C(=O)N[C@@H](C)C(=O)N[C@@H](CCCCN)C(=O)N[C@H](C(=O)NCC(=O)N[C@@H](CC(C)C)C(=O)N[C@@H](CCC(N)=O)C(=O)N[C@@H](CCC(=O)O)C(=O)N[C@@H](CC(C)C)C(=O)N[C@H](C(=O)N[C@@H](CCC(N)=O)C(=O)N1CCC[C@H]1C(=O)N[C@@H](CCCCN)C(=O)O)[C@@H](C)CC)C(C)C)[C@@H](C)O [GWASKIGQTLGKMAKVGLQELIQPK]
MIC [1]: ≥ 50 µM
MIC [2]: 50 µM (≈ 134 µg/mL)

CC[C@H](C)[C@H](N)C(=O)N[C@@H](CC(C)C)C(=O)NCC(=O)N1CCC[C@H]1C(=O)N[C@H](C(=O)N[C@H](C(=O)N[C@@H](CO)C(=O)N[C@@H](CCCCN)C(=O)N[C@H](C(=O)NCC(=O)NCC(=O)N[C@H](C(=O)N[C@@H](CC(C)C)C(=O)NCC(=O)NCC(=O)N[C@@H](CC(C)C)C(=O)N[C@@H](CC(C)C)C(=O)N[C@@H](CCCCN)C(=O)N[C@@H](CC(N)=O)C(=O)N[C@@H](CC(C)C)C(N)=O)C(C)C)[C@@H](C)CC)[C@@H](C)CC)C(C)C [ILGPVISKIGGVLGGLLKNL]
MIC [4]: 3.06 µM (≈ 6 µg/mL)
MIC [5]: 6.12 µM (≈ 12 µg/mL)
MIC [6]: 6.12 µM (≈ 12 µg/mL)
MIC [7]: 3.06 µM (≈ 6 µg/mL)

CC(C)C[C@@H]1NC(=O)[C@H](CCCN=C(N)N)NC(=O)[C@H](CC(C)C)NC(=O)[C@H](CC(C)C)NC(=O)[C@H](Cc2c[nH]c3ccccc23)NC(=O)[C@H](C(C)C)NC(=O)[C@H](Cc2ccc(O)cc2)NC(=O)[C@H](CC(C)C)NC(=O)[C@H](C(C)C)NC(=O)[C@H](CCC(N)=O)NC(=O)[C@@H](NC(=O)[C@H](Cc2ccccc2)NC(=O)[C@H](CC(N)=O)NC(=O)[C@H](CC(N)=O)NC(=O)[C@@H](N)CCCCN)CSSC[C@@H](C(=O)N[C@@H](Cc2ccccc2)C(=O)N[C@H](C(=O)N[C@@H](CCCCN)C(=O)N[C@@H](Cc2ccccc2)C(=O)N[C@@H](CO)C(=O)N[C@@H](CCCCN)C(=O)N[C@@H](CC(=O)O)C(=O)N[C@H](C(=O)N[C@@H](CCC(=O)O)C(=O)N[C@H](C(=O)O)[C@@H](C)O)C(C)C)C(C)C)NC(=O)[C@H](CCC(N)=O)NC(=O)[C@H](CCCCN)NC(=O)CNC1=O [KNNFCQVLYVWLLRLGKQCFVKFSKDVET]
MIC [4]: 28.5 µM (≈ 99.9 µg/mL)
MIC [5]: > 28.5 µM
MIC [6]: 28.5 µM (≈ 99.9 µg/mL)
MIC [2]: > 28.5 µM

CC[C@H](C)[C@H](NC(=O)[C@@H]1CCCN1C(=O)[C@H](CCCN=C(N)N)NC(=O)[C@H](CCCN=C(N)N)NC(=O)[C@H](Cc1ccccc1)NC(=O)[C@@H](N)CCCN=C(N)N)C(=O)N[C@@H](CCCN=C(N)N)C(=O)N[C@@H](CCCN=C(N)N)C(=O)N1CCC[C@H]1C(=O)N1CCC[C@H]1C(=O)N[C@H](C(=O)N[C@@H](CCCN=C(N)N)C(=O)N1CCC[C@H]1C(=O)N1CCC[C@H]1C(=O)N[C@@H](Cc1ccccc1)C(=O)N[C@@H](Cc1ccc(O)cc1)C(=O)N1CCC[C@H]1C(=O)O)[C@@H](C)CC [RFRRPIRRPPIRPPFYP]
MIC (Escherichia coli BW25113): 4 µM (≈ 8.89 µg/mL)

CC[C@H](C)[C@H](NC(=O)[C@@H]1CCCN1C(=O)[C@H](Cc1c[nH]c2ccccc12)NC(=O)[C@H](CCCN=C(N)N)NC(=O)[C@H](Cc1ccccc1)NC(=O)[C@@H](N)CCCN=C(N)N)C(=O)N[C@@H](CCCN=C(N)N)C(=O)N[C@@H](CCCN=C(N)N)C(=O)N[C@@H](CCCN=C(N)N)C(=O)N1CCC[C@H]1C(=O)N[C@H](C(=O)N[C@@H](CCCN=C(N)N)C(=O)N1CCC[C@H]1C(=O)N1CCC[C@H]1C(=O)N[C@@H](Cc1ccccc1)C(=O)N[C@@H](Cc1ccc(O)cc1)C(=O)N[C@@H](CCCN=C(N)N)C(=O)O)[C@@H](C)CC [RFRWPIRRRPIRPPFYR]
MIC (Escherichia coli BW25113): 8 µM (≈ 19 µg/mL)

CC[C@H](C)[C@H](NC(=O)[C@H](CC(C)C)NC(=O)[C@H](CC(C)C)NC(=O)[C@H](CC(=O)O)NC(=O)[C@H](CCCCN)NC(=O)[C@@H](NC(=O)[C@@H](NC(=O)CNC(=O)[C@H](CCSC)NC(=O)[C@@H](NC(=O)[C@@H](N)CO)C(C)C)[C@@H](C)O)C(C)C)C(=O)NCC(=O)N[C@@H](C)C(=O)NCC(=O)N[C@@H](CCCCN)C(=O)N[C@@H](CO)C(=O)N[C@@H](C)C(=O)N[C@@H](C)C(=O)N[C@@H](CCC(N)=O)C(=O)N[C@@H](CO)C(=O)N[C@H](C(=O)N[C@@H](CC(C)C)C(=O)N[C@@H](CCCCN)C(=O)N[C@@H](CO)C(=O)N[C@@H](CC(C)C)C(=O)N[C@@H](CO)C(=O)N[C@H]1CSSC[C@@H](C(=O)O)NC(=O)[C@H](CC(=O)O)NC(=O)[C@H](CC(N)=O)NC(=O)[C@H](CO)NC(=O)[C@H](CC(C)C)NC(=O)[C@H](CCCCN)NC1=O)C(C)C [SVMGTVKDLLIGAGKSAAQSVLKSLSCKLSNDC]
MIC [4]: 0.993 µM (≈ 3.3 µg/mL)
MIC [5]: 1.99 µM (≈ 6.6 µg/mL)
MIC [6]: 1.99 µM (≈ 6.6 µg/mL)
MIC [2]: 0.993 µM (≈ 3.3 µg/mL)
